Source: patent US20260098030A1, “NEGATIVE ALLOSTERIC MODULATORS OF METABOTROPIC GLUTAMATE RECEPTOR 2” (Vanderbilt University, priority 2022, published 2026)

The compounds below were run against T1, rat mGlu2 (Rattus norvegicus, UniProt P31421) (assay: mGlu GIRK cell-based thallium flux assay, rat mGlu2). Settings: HEK-293 cells co-expressing rat mGlu2 and GIRK, EC80 glutamate.
T1 construct: expressed in transfected cells; host or cells: HEK-293 cells stably co-expressing GIRK channels
Method in brief: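 HEK-293 cells stably co-expressing GIRK with human mGlu3, human mGlu2 or rat mGlu2 were loaded 1 h at 25° C with Thallos dye, then given compound (30 μM to 1.5 nM final, 10-point) for 2 min 20 s before EC80 glutamate plus thallium. Baseline-corrected fluorescence slope, normalized to ECmax glutamate, fitted to 4-parameter logistic for IC50.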

T1 sequence (P31421 19-872): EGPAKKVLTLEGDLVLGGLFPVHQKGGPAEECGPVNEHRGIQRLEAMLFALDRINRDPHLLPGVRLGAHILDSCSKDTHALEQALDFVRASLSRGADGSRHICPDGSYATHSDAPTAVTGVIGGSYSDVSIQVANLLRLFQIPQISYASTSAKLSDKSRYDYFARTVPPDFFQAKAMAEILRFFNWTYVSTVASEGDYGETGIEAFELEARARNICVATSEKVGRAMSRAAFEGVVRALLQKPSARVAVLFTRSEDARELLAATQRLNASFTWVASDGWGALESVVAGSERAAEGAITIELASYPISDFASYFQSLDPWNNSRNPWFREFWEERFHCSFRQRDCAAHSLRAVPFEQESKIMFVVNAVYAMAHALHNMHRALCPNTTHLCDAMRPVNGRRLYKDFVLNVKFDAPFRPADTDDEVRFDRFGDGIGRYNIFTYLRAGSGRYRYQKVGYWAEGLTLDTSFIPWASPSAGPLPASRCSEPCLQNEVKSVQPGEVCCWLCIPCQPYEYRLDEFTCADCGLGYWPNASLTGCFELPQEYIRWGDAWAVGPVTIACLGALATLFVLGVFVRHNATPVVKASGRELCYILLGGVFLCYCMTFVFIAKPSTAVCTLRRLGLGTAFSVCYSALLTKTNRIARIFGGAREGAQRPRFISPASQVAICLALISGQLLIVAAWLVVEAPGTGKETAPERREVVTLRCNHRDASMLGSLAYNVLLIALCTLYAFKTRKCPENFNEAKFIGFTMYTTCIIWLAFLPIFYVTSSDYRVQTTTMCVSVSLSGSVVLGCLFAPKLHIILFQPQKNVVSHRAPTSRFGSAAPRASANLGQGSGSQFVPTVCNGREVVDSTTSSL

**Q.** For `O=C1NCc2cc(-c3ccc4nccn4c3)c(-c3ccc(F)cc3)cc21` [Compound 20, 6-(4-fluorophenyl)-5-(imidazo[1,2-a]pyridin-6-yl)isoindolin-1-one], which IC50 is on record?
**A.** Its IC50 is 8.31 µM.

**Q.** How did the IC50 turn out when `O=C1NCc2cc(-c3c[nH]nc3C(F)(F)F)c(-c3ccc(F)cc3F)cc21` [Compound 114, 6-(2,4-difluorophenyl)-5-(3-(trifluoromethyl)-1H-pyrazol-4-yl)isoindolin-1-one] was run?
**A.** The IC50 was over 10 µM.

**Q.** With `COc1cc(C#N)cc(-c2cc3c(cc2-c2ccc(F)cc2F)C(=O)NC3)c1` [Compound 95, 3-(6-(2,4-difluorophenyl)-1-oxoisoindolin-5-yl)-5-methoxybenzonitrile] as the compound, how does the IC50 read?
**A.** The IC50 was 1.44 µM.

**Q.** `Cc1c(-c2cc3c(cc2-c2ccc(F)cc2)C(=O)NC3)cc(C#N)n1C` [Compound 53, 4-(6-(4-fluorophenyl)-1-oxoisoindolin-5-yl)-1,5-dimethyl-1H-pyrrole-2-carbonitrile] was tested. Which IC50 did it give?
**A.** The IC50 was over 10 µM.

**Q.** With `CN1CCC(c2cc3c(cc2-c2ccc(F)cc2)C(=O)NC3)CC1` [Compound 66, 6-(4-fluorophenyl)-5-(1-methylpiperidin-4-yl)isoindolin-1-one] as the compound, how does the IC50 read?
**A.** The IC50 was over 10 µM.

**Q.** Which IC50 does the source give for `CC1(C)CNCC=C1c1cc2c(cc1-c1ccc(F)cc1)C(=O)NC2` [Compound 76, 5-(3,3-dimethyl-1,2,3,6-tetrahydropyridin-4-yl)-6-(4-fluorophenyl)isoindolin-1-one] here?
**A.** Its IC50 is over 10 µM.

**Q.** Which IC50 does the source give for `CC(C)(O)c1ccc(-c2cc3c(cc2-c2ccc(F)cc2)C(=O)NC3)cn1` [Compound 50, 6-(4-fluorophenyl)-5-(6-(2-hydroxypropan-2-yl)pyridin-3-yl)isoindolin-1-one] here?
**A.** Its IC50 is over 10 µM.

**Q.** For `CC1(C)CC(c2cc3c(cc2-c2ccc(F)cc2)C(=O)NC3)CC(C)(C)N1` [Compound 75, 6-(4-fluorophenyl)-5-(2,2,6,6-tetramethylpiperidin-4-yl)isoindolin-1-one], which IC50 is on record?
**A.** Its IC50 is over 10 µM.

**Q.** `Cc1cc(F)ncc1-c1cc2c(cc1-c1ccc(F)cc1F)C(=O)NC2` [Compound 81, 6-(2,4-difluorophenyl)-5-(6-fluoro-4-methylpyridin-3-yl)isoindolin-1-one] was tested. Which IC50 did it give?
**A.** The IC50 was 1.14 µM.

**Q.** How did the IC50 turn out when `Cn1cc2ccc(-c3cc4c(cc3-c3ccc(F)cc3F)C(=O)NC4)cc2n1` [Compound 25, 6-(2,4-difluorophenyl)-5-(2-methyl-2H-indazol-6-yl)isoindolin-1-one] was run?
**A.** The IC50 was 2.35 µM.

**Q.** With `O=C1NCc2cc(-c3cccnc3C3CC3)c(-c3ccc(F)cc3)cc21` [Compound 43, 5-(2-cyclopropylpyridin-3-yl)-6-(4-fluorophenyl)isoindolin-1-one] as the compound, how does the IC50 read?
**A.** The IC50 was over 10 µM.

**Q.** For `Cc1c(C#N)cccc1-c1cc2c(cc1-c1ccc(F)cc1F)C(=O)NC2` [Compound 109, 3-(6-(2,4-difluorophenyl)-1-oxoisoindolin-5-yl)-2-methylbenzonitrile], which IC50 is on record?
**A.** The IC50 was 1.13 µM.

**Q.** How did the IC50 turn out when `Cc1ncccc1-c1cc2c(cc1-c1ccc(F)cc1F)C(=O)NC2` [Compound 73, 6-(2,4-difluorophenyl)-5-(2-methylpyridin-3-yl)isoindolin-1-one] was run?
**A.** Its IC50 is 4.41 µM.

**Q.** With `N#Cc1cc(-c2cc3c(cc2-c2ccc(F)cc2F)C(=O)NC3)ccn1` [Compound 104, 4-(6-(2,4-difluorophenyl)-1-oxoisoindolin-5-yl)picolinonitrile] as the compound, how does the IC50 read?
**A.** Its IC50 is over 10 µM.

**Q.** How did the IC50 turn out when `CC(C)c1ncccc1-c1cc2c(cc1-c1ccc(F)cc1)C(=O)NC2` [Compound 42, 6-(4-fluorophenyl)-5-(2-isopropylpyridin-3-yl)isoindolin-1-one] was run?
**A.** The IC50 was 7.55 µM.

What follows are compounds tested against T2, human mGlu2 (Homo sapiens, UniProt Q14416) (assay: mGlu GIRK cell-based thallium flux assay, human mGlu2). Settings: HEK-293 cells co-expressing human mGlu2 and GIRK, EC80 glutamate.
T2 construct: expressed in transfected cells; host or cells: HEK-293 cells stably co-expressing GIRK channels
T2 sequence (Q14416 19-872): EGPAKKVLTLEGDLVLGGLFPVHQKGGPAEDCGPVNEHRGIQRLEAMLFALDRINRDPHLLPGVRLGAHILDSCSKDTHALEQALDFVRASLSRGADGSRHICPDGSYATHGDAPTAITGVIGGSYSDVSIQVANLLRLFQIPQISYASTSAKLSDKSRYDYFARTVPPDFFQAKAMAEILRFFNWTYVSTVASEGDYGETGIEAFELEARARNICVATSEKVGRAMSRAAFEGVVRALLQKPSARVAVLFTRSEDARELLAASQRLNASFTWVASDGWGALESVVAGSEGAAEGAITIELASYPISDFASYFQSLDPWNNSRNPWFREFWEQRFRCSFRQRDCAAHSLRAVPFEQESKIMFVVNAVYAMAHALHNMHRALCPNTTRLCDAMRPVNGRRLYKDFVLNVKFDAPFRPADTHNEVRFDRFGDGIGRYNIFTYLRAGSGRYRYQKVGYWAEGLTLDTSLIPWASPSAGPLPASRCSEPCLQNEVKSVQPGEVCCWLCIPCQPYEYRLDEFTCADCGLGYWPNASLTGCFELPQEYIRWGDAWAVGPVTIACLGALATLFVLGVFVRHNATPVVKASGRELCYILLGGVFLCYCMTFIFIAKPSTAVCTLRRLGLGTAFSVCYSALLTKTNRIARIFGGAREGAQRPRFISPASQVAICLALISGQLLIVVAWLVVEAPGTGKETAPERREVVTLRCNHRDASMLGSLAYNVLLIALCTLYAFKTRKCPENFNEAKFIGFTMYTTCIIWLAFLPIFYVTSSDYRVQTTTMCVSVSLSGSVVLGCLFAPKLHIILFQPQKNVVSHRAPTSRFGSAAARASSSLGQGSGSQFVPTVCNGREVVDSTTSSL
Method: Human embryonic kidney (HEK-293) cell lines stably co-expressing human or rat mGlu2 and G protein-coupled inwardly rectifying potassium (GIRK) channels, or human mGlu3 and GIRK, were used for in vitro evaluation of compound activity in thallium flux assay using a fluorescent thallium indicator dye.
The day before the assay, GIRK cells co-expressing human mGlu3, human or rat mGlu2, as described above, were plated in black-walled, clear-bottomed, amine-coated 384-well plates at a density of 15,000 cells/20 μL/well in the assay medium (glutamine-depleted basal DMEM supplemented with 10% dialyzed FBS, 20 mM HEPES, 1 mM sodium pyruvate). Cells were incubated at 37° C. in the presence of 5% CO2. The next day, assay buffer (Hanks balanced salt solution, 20 mM HEPES, 4.16 mM sodium bicarbonate, pH 7.2) was prepared to dilute compounds and Thallos AM fluorescent dye solution. The 2× Thallos dye solution (final concentration 0.34 μM to the cells) was prepared by mixing the dye stock (2.97 mM in DMSO) to 1:1 with 10% pluronic acid before adding to the assay buffer. Cells were washed with assay buffer using a microplate washer to remove the medium, resulting in 20 μL of buffer remaining in each well. Immediately, 20 μL of 2× Thallos dye solution was added to cells, and incubated for one hour at 25° C. During the cell dye loading incubation period, a 10-point concentration serial dilution of compound was created from a 10 mM DMSO compound stock by performing a 1:3 serial dilution in DMSO using the Bravo liquid handler. The 2× compound plate was generated by transferring 0.24 μL of the diluted compound in each well to a daughter plate using an Echo acoustic liquid handler. This is further diluted in 40 μL assay buffer, resulting in a range from 30 μM to 1.5 nM final concentration in the assay. The agonist plate (5×) was prepared to include EC80 glutamate concentration (a concentration to elicit 80% of a maximally effective glutamate concentration) in thallium buffer (125 mM […], 1 mM magnesium sulfate, 1.8 mM calcium sulfate, 5 mM glucose, 10 mM HEPES, pH 7.2, 12.5 mM thallium sulfate).
After dye-loading, cell plates were washed with assay buffer to remove excess extracellular dye using a microplate washer, resulting in 20 μL of buffer remaining in each well. After a ten-minute equilibration period, cell, compound and agonist plates were loaded into a Hamamatsu μCell kinetic imaging plate reader equipped with liquid handler to monitor fluorescence changes at 480 nm excitation and 540 nm emission settings. Briefly, after collection of baseline fluorescence, 20 μL of compound was added and incubated for two minutes and twenty seconds. This is immediately followed by adding 10 μL of glutamate-thallium buffer to the wells containing compound. The fluorescent signal was monitored an additional 2.5 minutes after the glutamate addition. Multiple reference wells containing no compound received either no glutamate (for a baseline reference), EC80 glutamate, or ECmax glutamate (for normalization to maximum response). Fluorescence was measured throughout the experiment at a frequency of 1 measurement per every 2 seconds before the glutamate addition and a frequency of 1 measurement per every 1 second after the glutamate addition. Each compound concentration series occurred one time in each plate, and replicates from two or three plates were used in each experimental run. Thallium solutions were handled and disposed of according to guidelines from the Vanderbilt University Chemical Safety department.
Data were normalized using a static ratio function (F/F0) by dividing every fluorescent measurement by the initial fluorescent value for the corresponding well. The increase in signal resulting from the glutamate/thallium addition of the second add was measured by determining the slope from 3 seconds to 13 seconds after the addition. […]

**Q.** With `N#Cc1ccccc1-c1cc2c(cc1-c1ccc(F)cc1F)C(=O)NC2` [Compound 124, 2-(6-(2,4-difluorophenyl)-1-oxoisoindolin-5-yl)benzonitrile] as the compound, how does the IC50 read?
**A.** The IC50 was 0.496 µM.

**Q.** For `O=C1NCc2cc(-c3cnc(Cl)n3C3CCCCO3)c(-c3ccc(F)cc3F)cc21` (centres unmarked) [Compound 148, 5-(2-chloro-1-(tetrahydro-2H-pyran-2-yl)-1H-imidazol-5-yl)-6-(2,4-difluorophenyl)isoindolin-1-one], which IC50 is on record?
**A.** The IC50 was 0.454 µM.

**Q.** Which IC50 does the source give for `Cc1cc(F)ccc1-c1cc2c(cc1-c1cccc(C#N)c1)CNC2=O` [Compound 143, 3-(6-(4-fluoro-2-methylphenyl)-1-oxoisoindolin-5-yl)benzonitrile] here?
**A.** Its IC50 is 1.67 µM.

**Q.** How did the IC50 turn out when `O=C1NCc2cc(-c3cnn(CCN4CCOCC4)c3)c(-c3ccc(F)cc3F)cc21` [Compound 154, 6-(2,4-difluorophenyl)-5-(1-(2-morpholinoethyl)-1H-pyrazol-4-yl)isoindolin-1-one] was run?
**A.** The IC50 was over 10 µM.

**Q.** For `N#Cc1cccc(-c2cc3c(cc2-c2ccc(F)cc2C#N)C(=O)NC3)c1` [Compound 141, 2-(6-(3-cyanophenyl)-3-oxoisoindolin-5-yl)-5-fluorobenzonitrile], which IC50 is on record?
**A.** Its IC50 is 0.22 µM.

**Q.** With `CS(=O)(=O)c1cccc(-c2cc3c(cc2-c2ccc(F)cc2F)C(=O)NC3)c1` [Compound 122, 6-(2,4-difluorophenyl)-5-(3-(methylsulfonyl)phenyl)isoindolin-1-one] as the compound, how does the IC50 read?
**A.** The IC50 was 1.29 µM.

**Q.** Which IC50 does the source give for `COc1ccc(-c2cc3c(cc2-c2cccc(C#N)c2)CNC3=O)cc1F` [Compound 171, 3-(6-(3-fluoro-4-methoxyphenyl)-1-oxoisoindolin-5-yl)benzonitrile] here?
**A.** Its IC50 is 3.55 µM.

**Q.** Which IC50 does the source give for `CNC(=O)c1ccc(F)c(-c2cc3c(cc2-c2ccc(F)cc2F)C(=O)NC3)c1` [Compound 121, 3-(6-(2,4-difluorophenyl)-1-oxoisoindolin-5-yl)-4-fluoro-N-methylbenzamide] here?
**A.** The IC50 was 1.44 µM.

**Q.** For `CCn1cc(-c2cc3c(cc2-c2ccc(F)cc2F)C(=O)NC3)c(C(F)(F)F)n1` [Compound 129, 6-(2,4-difluorophcnyl)-5-(1-cthyl-3-(trifluoromethyl)-1H-pyrazol-4-yl)isoindolin-1-one], which IC50 is on record?
**A.** The IC50 was 0.767 µM.

**Q.** For `N#Cc1cccc(-c2cc3c(cc2-c2cc(F)ccc2F)C(=O)NC3)c1` [Compound 185, 3-(6-(2,5-difluorophenyl)-1-oxoisoindolin-5-yl)benzonitrile], which IC50 is on record?
**A.** The IC50 was over 10 µM.

**Q.** With `O=C1NCc2cc(-c3ccnn3C3CCCCO3)c(-c3ccc(F)cc3F)cc21` (centres unmarked) [Compound 147, 6-(2,4-difluorophenyl)-5-(1-(tetrahydro-2H-pyran-2-yl)-1H-pyrazol-5-yl)isoindolin-1-one] as the compound, how does the IC50 read?
**A.** Its IC50 is 5.91 µM.

**Q.** How did the IC50 turn out when `[2H]C([2H])(c1ccn(C)n1)C([2H])([2H])c1cc2c(cc1-c1ccc(F)cc1F)C(=O)NC2` [Compound A3, 6-(2,4-difluorophenyl)-5-(2-(1-methyl-1H-pyrazol-3-yl)ethyl-1,1,2,2-d4)isoindolin-1-one] was run?
**A.** Its IC50 is 0.218 µM.

**Q.** For `[2H]C1([2H])NC(=O)c2cc(-c3ccc(F)cc3F)c(C([2H])([2H])C([2H])([2H])c3ccn(C)n3)cc21` [Compound A5, 6-(2,4-difluorophenyl)-5-(2-(1-methyl-1H-pyrazol-3-yl)ethyl-1,1,2,2-d4)isoindolin-1-one-3,3-d2], which IC50 is on record?
**A.** Its IC50 is 0.205 µM.

**Q.** `CNS(=O)(=O)c1cccc(-c2cc3c(cc2-c2ccc(F)cc2F)C(=O)NC3)c1` [Compound 119, 3-(6-(2,4-difluorophenyl)-1-oxoisoindolin-5-yl)-N-methylbenzenesulfonamide] was tested. Which IC50 did it give?
**A.** The IC50 was 2.7 µM.

**Q.** Which IC50 does the source give for `COc1ccc(F)c(-c2cc3c(cc2-c2cccc(C#N)c2)CNC3=O)c1` [Compound 170, 3-(6-(2-fluoro-5-methoxyphenyl)-1-oxoisoindolin-5-yl)benzonitrile] here?
**A.** Its IC50 is over 10 µM.

**Q.** How did the IC50 turn out when `O=C1NCc2cc(CCc3cncnc3)c(-c3ccc(F)cc3F)cc21` [Compound A2, 6-(2,4-difluorophenyl)-5-(2-(pyrimidin-5-yl)ethyl)isoindolin-1-one] was run?
**A.** The IC50 was 0.667 µM.

**Q.** Which IC50 does the source give for `Cc1ccc(-c2cc3c(cc2-c2cccc(C#N)c2)CNC3=O)c(F)c1` [Compound 142, 3-(6-(2-fluoro-4-methylphenyl)-1-oxoisoindolin-5-yl)benzonitrile] here?
**A.** Its IC50 is 1.31 µM.
